# Source: a melting point compilation (Tetko et al.; mined from patent text by program, amines drawn as free bases though some values may be those of a salt)
row,SMILES,melting point [°C]
1,COc1cc(C2c3cc4c(cc3C(O)CC2C(=O)O)OCO4)cc(OC)c1OC (stereo unspecified),181 to 182
2,COC(=O)c1cc(Br)c(OC)c2c1OCO2,165 to 166
3,CC(C)(C)OC(=O)c1ncn2c1[C@@H]1CCCN1C(=O)c1c(I)cccc1-2,241 to 242
4,NC(=NCC(F)(F)F)Nc1ccnc(CCCCNC(=S)NCC(F)(F)F)n1,142 to 145
5,Cc1c(C(=O)Nc2ccc(N3CCC(N4CCOCC4)CC3)c(Br)c2)cnn1-c1ccc(C(F)(F)F)cc1,220 to 230
6,COc1cc(C)nc(NC(=O)NS(=O)(=O)c2ccccc2C(=O)Nc2nccs2)n1,185 to 187
7,COC1OCC2C(=O)C3CCCCC3CC12 (stereo unspecified),78 to 79
8,CC12C=CC(=O)C=C1CCC1C2C(O)CC2(C)C1CC(OCCO)C2(O)C(=O)CO (stereo unspecified),138 to 140
9,CC(C)c1nc(C(C)(C)C)cc(-c2ccc(F)cc2)c1C=CI,78 to 80
10,CCOC(=O)CN1C(=O)C(N[C@H]2CCCCNC2=O)CCc2ccccc21 (stereo partly specified),148 to 150
11,Cc1nc2cc3c4c(cccc4c2[nH]1)C(=O)N(O)C3=O,> 330
12,CS(=O)(=O)c1nc(C(N)=O)n[nH]1,172 to 180
13,CCOC(=O)C(CC(=O)c1cccc(Cl)c1)(NC(C)=O)C(=O)OCC,84 to 86
14,CCCCCCCCCCCCCCCc1ccc(CO)c(O)c1,94 to 95
15,CC1(C)Oc2ccc(C#N)cc2C(OC(=O)C2CCCN2S(=O)(=O)c2ccc(Cl)cc2)C1Br (stereo unspecified),178 to 180
16,Cc1nc2cc(Br)cc(Br)c2o1,122 to 124
17,COc1cccc(CN2Cc3cc(OC)c(O)cc3C(O)C2)c1 (stereo unspecified),137 to 138
18,CCn1c(=O)c2c(nc(/C=C/c3cc(C)c(OC)cc3C)n2C)n(CC)c1=O,235 to 236
19,COC(=O)c1ccc(-c2c[nH]c(-c3ccc4c(c3)C(C)(C)CCC4(C)C)c2)cc1,174 to 175
20,COc1ccc(Nc2ccn(C(C)=O)n2)cc1,123 to 124
21,O=c1oc2ccccc2c2c1CNCC2,125 to 128
22,O=C(CBr)CCc1ccc(I)cc1,76 to 77
23,CN(CP(=O)(O)O)C1CCS(=O)(=O)C1 (stereo unspecified),222 to 225
24,Cc1c(C=O)nc(-c2ccc(C(F)(F)F)cc2)n1C,144
25,O=c1[nH]c2ccc(Br)cc2c(=O)n1CCS,334 to 336
26,COc1cc(N)c(Cl)cc1C(=O)NCC1CCN(CCCCCC(=O)c2cn(C)c3ccccc23)CC1,125 to 127
27,COc1ccc(COc2c(C)c(C)c3c(c2C)C(c2ccc(N4CCN(C)CC4)cc2)C(C)(C)O3)cc1 (stereo unspecified),121 to 122

row,SMILES,melting point [°C]
1,CCN(CC)CCNC(=O)c1cc(Cl)c(N)cc1OCCC(C)OC (stereo unspecified),76 to 78
2,COc1ccc(C2CCN(c3c(C)c(C)c4c(c3C)C(c3ccc(C(C)C)cc3)C(C)(C)O4)CC2)cc1OC (stereo unspecified),129 to 132
3,CC1(C)CCCc2ccc(CC#Cc3ccc(C(=O)O)c(O)c3)cc21,185 to 187
4,COc1ccc(C2(C#N)CC2)cc1OC1CCCC1,80.4
5,CCN1CC(Cc2ccc(C(=O)O)cc2OC)c2cc(NC(=O)CC3CCCC3)ccc21 (stereo unspecified),183 to 186
6,COC(=O)[C@@H]1C/C=C/COc2ccc(cc2)C[C@H](NC(=O)OC(C)(C)C)C(=O)N[C@@H](C(C)C)C(=O)N1,105 to 107
7,CC(C)(C)OC(=O)NCCNC(=O)c1cc(Cl)ccn1,120 to 123
8,CCCCn1c(=O)c2c(ncn2S(=O)(=O)c2cc(C)c(Cl)cc2C)n(CCCC)c1=O,138 to 140
9,COc1cccc(NS(=O)(=O)c2sccc2C2OCCO2)c1,112 to 114
10,COc1ccc(CS(=O)(=O)Cc2ccc(OC)cc2)cc1,108 to 123
11,N[C@@H](CCC(=O)O)C(=O)N[C@@H](Cc1ccccc1)C(=O)O,147 to 149
12,CC(C)CC1OC[C@@H]2CCCN2C1=O (stereo partly specified),61 to 65
13,CC(=C1SCCCS1)c1ccc(Sc2ccc(O)cc2)cc1,113 to 114
14,Nc1ccccc1NC(=O)c1cc2cc(OCCN3CCOCC3)ccc2s1,166 to 169
15,CC(C)CCCC(C)C1C=CC2(CC(=O)O)C3=C(CCC12C)C1(C)CCC(O)CC1CC3 (stereo unspecified),221 to 222
16,CCOC(=O)c1cn(Nc2ccc(F)cc2F)c2nc(Cl)c(F)cc2c1=O,210 to 212
17,COc1ccc(CC2SC(=O)NC2=O)c2c1N(Cc1ccc(N)cc1)C(=O)CC2 (stereo unspecified),174 to 175
18,CC(=O)N[C@H]1CC[C@H](CCN2CCN(c3nc(C)cc4c3CCO4)CC2)CC1,218
19,COc1ccc(C(=O)CC(SC(C)=O)C(=O)O)cc1 (stereo unspecified),122 to 124
20,CNc1cc(Oc2ccc3c(C(=O)Nc4ccc(F)c(C(F)(F)F)c4)cncc3c2)ncn1,255 to 257
21,CNCc1csc(-c2cccc(C3=Nc4cc(N(C)C)c(Cl)cc4NC(=O)C3)c2)n1,129 to 130
22,Fc1ccccc1C1=NCc2c(N3CCCC3)ncn2-c2ccc(Cl)cc21,114 to 118
23,C#CCN(c1nc(C)n(-c2ccc(Cl)cc2Cl)n1)c1cc(C)ccc1OC,116
24,CCCCCCCCCCCCCCCCCCOc1cc(N)cc(OCCCCC(=O)OC)c1,57 to 59
25,NN(CCO)c1ccc(-c2ccc(Cl)cc2)nn1,172 to 174
26,O=C(Nc1ccc(-n2nc(C(F)(F)F)cc2C(F)(F)F)cc1)c1cc([N+](=O)[O-])cc([N+](=O)[O-])c1,> 230
27,CN(C1=CC(C)(C)Oc2ccc(OCCCC(F)(F)F)cc21)S(C)(=O)=O,118

# Next, values leading:
row,melting point [°C],SMILES
1,226 to 227,CC(C)n1c(C=O)c(-c2ccc(F)cc2)c(-c2ccc(F)cc2)c1C(=O)Nc1ccc(CC(=O)N(C)C)cc1
2,190 to 193,COc1cc2c(cc1F)C(=Cc1ccc(S(C)=O)cc1)C(C)=C2CC(=O)O (stereo unspecified)
3,188 to 189,CS(=O)(=O)c1ccc(-c2cnn(CC(=O)c3ccc(C#N)cc3)c(=O)c2-c2ccc(F)cc2)cc1
4,205 to 211,CC(C)c1nc(CO)n(CC(=O)c2ccccc2)c1Sc1cc(Cl)cc(Cl)c1
5,59 to 61,CCOC(=O)COc1ccc(CN2C(=O)C3(COc4cc5c(cc43)OCCO5)c3ccccc32)cc1 (stereo unspecified)
6,137 to 138,COc1ccc2c(c1)C(C(=O)N(Cc1ccc(C#N)cc1)c1ccc(C(C)C)cc1)CCC2 (stereo unspecified)
7,118 to 119,CSc1ncccc1NC(=O)CCCCCSc1nc2ccccc2s1
8,154 to 156,COc1ccc(-n2nnnc2C(F)(F)F)cc1C1=CC2(CCCN(C(=O)c3ccccc3)C2)OC1 (stereo unspecified)
9,78 to 80,CC(CCCC(=NO)C(=O)O)(c1ccc(OCc2ccc3ccccc3n2)cc1)c1ccc(OCc2ccc3ccccc3n2)cc1
10,78 to 80,[N-]=[N+]=NCc1nc2ccccc2n1Cc1ccc(Cl)c(Cl)c1
11,168 to 169,CC1(C)CCC(C)(C)c2cc(C(=O)CNc3ccc(C(=O)O)cc3)ccc21
12,244,CC(=O)NS(=O)(=O)c1cccc(-c2cccc(-c3cc(-c4ccc(C(F)(F)F)cc4)cc(C)n3)n2)c1
13,197 to 199,O=C(NC1CC1)c1ccc(-c2ccc3nnn(Cc4ccc5ncccc5c4)c3n2)cc1Cl
14,100 to 102,CC1=CC(COC(c2ccccc2)(c2ccccc2)c2ccccc2)OC1O (stereo unspecified)
15,207 to 208,O=S(=O)(Cc1ccccc1)N1CCC(c2ccc(O)cc2O)CC1
16,94 to 95,Cc1sc(CCc2ccc(C=CC=O)cc2)nc1-c1ccccc1
17,160 to 162,O=c1c2c(c3cccnc3n1-c1ccccc1)CCCC2
18,200 to 201,O=C(Oc1ccccc1)N1CCC2(CC1)SC(c1ccc(F)cc1)c1ccccc12 (stereo unspecified)
19,127 to 128,Cc1oc(-c2ccccc2)nc1COc1ccc(OCc2oc(-c3ccccc3)nc2C=O)cc1
20,201 to 202,Oc1cccc(-c2cn3ccc4ccccc4c3n2)c1
21,141 to 143,COc1ccc(Oc2cccc(C(=O)O)c2)cc1

row,melting point [°C],SMILES
1,110 to 112,Nc1c(-c2ccccc2)sc2ccccc12
2,193 to 195,O=C(CC1C(=S)Nc2ccccc21)NCc1ccccc1 (stereo unspecified)
3,60 to 62,CCOC(=O)CCC1NC(=O)CN1Cc1ccccc1 (stereo unspecified)
4,124 to 125,Cc1oc(-c2ccccc2)nc1CCOc1ccc(CC(C(=O)O)c2ccccc2)cc1 (stereo unspecified)
5,173,Cc1ccc(-c2ccc(C(=O)Nc3ccc4cc(CN5CCCC5)cnc4c3)c(F)c2)cc1
6,144 to 146,CCOC(=O)C1=C(C(F)(F)F)Nc2n[nH]cc2C1c1ccccc1OC (stereo unspecified)
7,218 to 220,O=C1CC2(C(=O)N1)C(=O)N(Cc1ccc(Br)cc1)c1ccccc12 (stereo unspecified)
8,> 268,Oc1ccc(-c2ncc3ncc(Nc4ncccn4)cc3n2)cc1
9,246 to 248,O=c1c(O)cn(-c2cccc(C(F)(F)F)c2)nc1-c1ccnn1-c1ccccc1
10,80 to 85,CC(C)(C)c1ccc(S(=O)(=O)N2c3ccccc3C[C@H]2C(=O)NCc2ccc(CC(=O)O)cc2)cc1
11,84 to 88,O=C(N[C@@H](CSc1ccccc1[N+](=O)[O-])C(=O)O)OCc1ccccc1
12,188 to 190,Cc1oc(-c2ccccc2)nc1CCOc1ccc(C[C@H](NC(=O)C=Cc2ccc(F)cc2)C(=O)O)cc1
13,207 to 210,O=S(=O)(c1ccc(-n2cccc2)cc1)c1cccc2cnccc12
14,98,CN(C)c1ccc(-c2cc(C(F)(F)F)c3c(-c4ccccc4)nn(COCC[Si](C)(C)C)c3n2)cc1
15,181 to 182,COc1cc2ncnc(N3CCc4cc(OCc5ccccc5)ccc43)c2cc1OC
16,147 to 148,CCn1c(C)c(C(=O)c2ccccc2)c(N=Cc2ccccc2)c1-c1ccccc1
17,98 to 101,COC(=O)c1ccc2nc(C)ccc2c1
18,70 to 73,COc1c(OCc2ccccc2)cnc(CO)c1C
19,208 to 209,CON=C(C(=O)Nc1ccc(C(=O)O)cc1)c1ccc2c(c1)C(C)(C)CCC2(C)C
20,148 to 149,CCOC(=O)c1cc2cc(Oc3ccc(S(C)(=O)=O)cc3)cc(OCc3ccccc3)c2[nH]1
21,118 to 120,CC(C#Cc1ccc2c(c1)CCN(Cc1ccc(-c3ccc(F)cc3)cn1)C2=O)N(O)C(N)=O (stereo unspecified)
